Assay results published in ChEMBL document CHEMBL4028801, “A multifactorial approach to hepatobiliary transporter assessment enables improved therapeutic compound development” (Toxicol Sci, 2013).
One block for each molecule: values may come before it.

Legend:
[1] = molecular target: Bile salt export pump (Homo sapiens, UniProt O95342); experiment: Inhibition of human BSEP overexpressed in Sf9 cell membrane vesicles assessed as uptake of [3H]-taurocholate in presence of ATP measured after 15 to 20 mins by membrane vesicle transport assay; type: ADME, cell-based
Chain of Bile salt export pump (O95342 whole entry): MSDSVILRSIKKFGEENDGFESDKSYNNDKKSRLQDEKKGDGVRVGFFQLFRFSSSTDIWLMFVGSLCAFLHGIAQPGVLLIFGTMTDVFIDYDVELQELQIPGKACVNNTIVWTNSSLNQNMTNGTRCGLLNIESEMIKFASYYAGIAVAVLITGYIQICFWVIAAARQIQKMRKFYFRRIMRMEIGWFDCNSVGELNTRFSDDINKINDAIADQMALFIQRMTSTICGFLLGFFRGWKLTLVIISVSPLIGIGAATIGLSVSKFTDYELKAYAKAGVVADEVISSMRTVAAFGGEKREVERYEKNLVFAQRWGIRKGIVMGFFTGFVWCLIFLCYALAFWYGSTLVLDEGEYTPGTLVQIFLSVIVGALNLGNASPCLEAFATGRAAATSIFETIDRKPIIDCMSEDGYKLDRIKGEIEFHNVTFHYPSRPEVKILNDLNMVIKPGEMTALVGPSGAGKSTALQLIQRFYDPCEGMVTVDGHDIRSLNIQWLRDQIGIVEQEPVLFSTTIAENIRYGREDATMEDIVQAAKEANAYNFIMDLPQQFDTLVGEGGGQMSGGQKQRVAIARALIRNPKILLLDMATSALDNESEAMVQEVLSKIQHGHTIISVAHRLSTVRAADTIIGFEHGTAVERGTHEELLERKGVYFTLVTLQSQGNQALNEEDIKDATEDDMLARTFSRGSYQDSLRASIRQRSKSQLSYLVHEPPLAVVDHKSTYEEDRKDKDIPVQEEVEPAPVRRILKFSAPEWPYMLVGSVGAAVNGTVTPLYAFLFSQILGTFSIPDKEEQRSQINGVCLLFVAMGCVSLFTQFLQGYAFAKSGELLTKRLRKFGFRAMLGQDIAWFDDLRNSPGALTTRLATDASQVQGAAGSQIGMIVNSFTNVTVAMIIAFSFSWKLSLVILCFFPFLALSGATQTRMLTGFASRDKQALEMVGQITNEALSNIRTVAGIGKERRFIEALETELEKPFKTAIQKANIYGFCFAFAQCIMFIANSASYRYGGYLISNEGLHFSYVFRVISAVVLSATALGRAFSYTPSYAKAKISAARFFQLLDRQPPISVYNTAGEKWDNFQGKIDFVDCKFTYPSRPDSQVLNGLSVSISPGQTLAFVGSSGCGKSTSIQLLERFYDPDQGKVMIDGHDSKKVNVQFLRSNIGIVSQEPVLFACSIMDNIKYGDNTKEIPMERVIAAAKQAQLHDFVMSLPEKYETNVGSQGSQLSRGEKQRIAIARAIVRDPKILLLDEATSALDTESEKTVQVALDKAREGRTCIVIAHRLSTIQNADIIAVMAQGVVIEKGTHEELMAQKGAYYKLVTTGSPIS

[2] = molecular target: ATP-binding cassette sub-family C member 3 (Homo sapiens, UniProt O15438); experiment: Inhibition of human MRP3 overexpressed in Sf9 insect cell membrane vesicles assessed as uptake of [3H]-estradiol-17beta-D-glucuronide in presence of ATP and GSH measured after 10 mins by membrane vesicle transport assay; type: ADME, cell-based
Chain of ATP-binding cassette sub-family C member 3 (O15438 whole entry): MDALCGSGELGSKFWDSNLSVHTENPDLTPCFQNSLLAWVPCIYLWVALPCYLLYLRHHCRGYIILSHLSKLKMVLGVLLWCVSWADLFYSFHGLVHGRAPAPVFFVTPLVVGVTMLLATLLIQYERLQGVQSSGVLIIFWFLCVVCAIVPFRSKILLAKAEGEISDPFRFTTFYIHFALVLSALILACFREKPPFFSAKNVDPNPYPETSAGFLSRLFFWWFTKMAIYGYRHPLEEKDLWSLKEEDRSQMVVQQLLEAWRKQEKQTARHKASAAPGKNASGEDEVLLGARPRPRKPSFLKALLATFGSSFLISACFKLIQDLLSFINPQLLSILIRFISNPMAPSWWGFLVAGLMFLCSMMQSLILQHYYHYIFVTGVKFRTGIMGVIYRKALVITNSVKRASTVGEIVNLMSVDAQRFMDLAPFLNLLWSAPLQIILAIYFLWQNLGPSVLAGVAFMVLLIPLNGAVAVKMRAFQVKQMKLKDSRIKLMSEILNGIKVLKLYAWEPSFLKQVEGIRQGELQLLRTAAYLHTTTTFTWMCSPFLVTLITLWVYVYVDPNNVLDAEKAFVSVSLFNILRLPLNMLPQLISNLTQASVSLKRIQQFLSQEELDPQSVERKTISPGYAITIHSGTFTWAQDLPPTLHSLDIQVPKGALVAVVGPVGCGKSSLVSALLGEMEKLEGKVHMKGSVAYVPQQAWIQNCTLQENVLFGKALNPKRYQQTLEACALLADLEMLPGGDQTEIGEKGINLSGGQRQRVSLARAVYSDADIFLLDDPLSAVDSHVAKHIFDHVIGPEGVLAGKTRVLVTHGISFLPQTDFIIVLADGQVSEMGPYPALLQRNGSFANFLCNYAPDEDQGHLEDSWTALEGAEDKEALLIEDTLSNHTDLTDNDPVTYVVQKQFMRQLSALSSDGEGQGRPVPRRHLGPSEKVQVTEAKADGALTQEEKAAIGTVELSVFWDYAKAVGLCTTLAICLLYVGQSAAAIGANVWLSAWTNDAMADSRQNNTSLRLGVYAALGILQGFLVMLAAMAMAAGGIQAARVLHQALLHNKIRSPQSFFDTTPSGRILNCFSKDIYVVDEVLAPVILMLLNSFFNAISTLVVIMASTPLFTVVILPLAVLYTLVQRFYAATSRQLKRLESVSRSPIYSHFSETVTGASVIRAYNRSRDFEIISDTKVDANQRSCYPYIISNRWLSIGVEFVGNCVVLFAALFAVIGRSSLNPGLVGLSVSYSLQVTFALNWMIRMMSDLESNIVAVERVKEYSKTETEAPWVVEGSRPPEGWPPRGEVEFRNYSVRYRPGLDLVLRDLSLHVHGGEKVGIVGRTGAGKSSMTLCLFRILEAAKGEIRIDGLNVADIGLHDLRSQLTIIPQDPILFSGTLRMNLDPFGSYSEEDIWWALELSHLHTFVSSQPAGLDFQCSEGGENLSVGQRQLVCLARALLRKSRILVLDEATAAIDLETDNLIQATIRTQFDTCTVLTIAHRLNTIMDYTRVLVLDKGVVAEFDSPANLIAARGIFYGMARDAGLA

[3] = molecular target: T1, ATP-binding cassette sub-family C member 4 (Homo sapiens, UniProt O15439); experiment: Inhibition of human MRP4 overexpressed in Sf9 cell membrane vesicles assessed as uptake of [3H]-estradiol-17beta-D-glucuronide in presence of ATP and GSH measured after 20 mins by membrane vesicle transport assay; type: ADME, cell-based
T1 sequence (O15439 whole entry): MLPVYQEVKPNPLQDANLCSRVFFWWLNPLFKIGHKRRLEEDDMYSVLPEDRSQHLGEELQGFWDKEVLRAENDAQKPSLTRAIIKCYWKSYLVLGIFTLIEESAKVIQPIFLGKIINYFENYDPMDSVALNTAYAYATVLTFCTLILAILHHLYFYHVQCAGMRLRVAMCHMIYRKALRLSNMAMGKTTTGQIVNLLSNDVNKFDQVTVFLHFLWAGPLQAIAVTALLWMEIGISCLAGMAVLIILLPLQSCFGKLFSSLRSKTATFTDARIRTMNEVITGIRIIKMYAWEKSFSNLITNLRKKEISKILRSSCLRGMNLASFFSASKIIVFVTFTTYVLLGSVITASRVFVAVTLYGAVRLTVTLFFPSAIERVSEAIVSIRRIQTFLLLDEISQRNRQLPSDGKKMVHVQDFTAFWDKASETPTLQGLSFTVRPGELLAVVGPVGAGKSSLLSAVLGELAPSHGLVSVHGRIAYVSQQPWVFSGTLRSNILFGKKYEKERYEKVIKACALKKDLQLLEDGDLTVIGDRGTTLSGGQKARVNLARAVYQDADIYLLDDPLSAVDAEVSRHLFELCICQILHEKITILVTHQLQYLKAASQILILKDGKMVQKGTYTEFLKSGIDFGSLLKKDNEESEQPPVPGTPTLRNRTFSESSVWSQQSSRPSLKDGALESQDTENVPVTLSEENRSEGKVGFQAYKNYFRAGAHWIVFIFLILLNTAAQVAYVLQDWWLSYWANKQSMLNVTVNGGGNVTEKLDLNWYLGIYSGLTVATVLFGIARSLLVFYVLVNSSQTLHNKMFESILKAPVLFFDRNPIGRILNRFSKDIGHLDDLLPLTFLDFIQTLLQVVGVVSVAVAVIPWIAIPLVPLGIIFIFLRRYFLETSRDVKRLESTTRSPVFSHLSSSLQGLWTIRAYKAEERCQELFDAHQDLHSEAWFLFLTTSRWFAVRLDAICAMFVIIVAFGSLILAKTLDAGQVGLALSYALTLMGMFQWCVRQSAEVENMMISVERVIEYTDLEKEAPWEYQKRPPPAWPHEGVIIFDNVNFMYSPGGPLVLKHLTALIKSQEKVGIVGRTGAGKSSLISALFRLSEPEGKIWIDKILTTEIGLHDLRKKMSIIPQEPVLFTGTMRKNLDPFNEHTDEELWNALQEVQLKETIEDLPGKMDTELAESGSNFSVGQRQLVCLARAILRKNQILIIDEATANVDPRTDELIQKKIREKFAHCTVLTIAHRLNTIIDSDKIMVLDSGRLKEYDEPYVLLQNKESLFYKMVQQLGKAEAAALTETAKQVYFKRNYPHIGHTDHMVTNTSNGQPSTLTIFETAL

[4] = AUC in human at 150 to 300 mg, po QD after 24 hrs; type: ADME, organism-based; settings: in vivo
[5] = Drug concentration at steady state in human at 150 to 300 mg, po QD after 24 hrs; type: ADME, organism-based; settings: in vivo, read-out: Css
[6] = Ratio of drug concentration at steady state in human at 150 to 300 mg, po QD after 24 hrs to IC50 for human BSEP overexpressed in Sf9 insect cells; type: ADME, organism-based; settings: in vivo
[7] = Ratio of drug concentration at steady state in human at 150 to 300 mg, po QD after 24 hrs to IC50 for human MRP3 overexpressed in Sf9 insect cells; type: ADME, organism-based; settings: in vivo
[8] = Ratio of drug concentration at steady state in human at 150 to 300 mg, po QD after 24 hrs to IC50 for human MRP4 overexpressed in Sf9 insect cells; type: ADME, organism-based; settings: in vivo
[9] = molecular target: ATP-binding cassette sub-family C member 2 (Homo sapiens, UniProt Q92887); experiment: Inhibition of human MRP2 overexpressed in Sf9 cell membrane vesicles assessed as uptake of [3H]-estradiol-17beta-D-glucuronide in presence of ATP and GSH measured after 20 mins by membrane vesicle transport assay
Chain of ATP-binding cassette sub-family C member 2 (Q92887 whole entry): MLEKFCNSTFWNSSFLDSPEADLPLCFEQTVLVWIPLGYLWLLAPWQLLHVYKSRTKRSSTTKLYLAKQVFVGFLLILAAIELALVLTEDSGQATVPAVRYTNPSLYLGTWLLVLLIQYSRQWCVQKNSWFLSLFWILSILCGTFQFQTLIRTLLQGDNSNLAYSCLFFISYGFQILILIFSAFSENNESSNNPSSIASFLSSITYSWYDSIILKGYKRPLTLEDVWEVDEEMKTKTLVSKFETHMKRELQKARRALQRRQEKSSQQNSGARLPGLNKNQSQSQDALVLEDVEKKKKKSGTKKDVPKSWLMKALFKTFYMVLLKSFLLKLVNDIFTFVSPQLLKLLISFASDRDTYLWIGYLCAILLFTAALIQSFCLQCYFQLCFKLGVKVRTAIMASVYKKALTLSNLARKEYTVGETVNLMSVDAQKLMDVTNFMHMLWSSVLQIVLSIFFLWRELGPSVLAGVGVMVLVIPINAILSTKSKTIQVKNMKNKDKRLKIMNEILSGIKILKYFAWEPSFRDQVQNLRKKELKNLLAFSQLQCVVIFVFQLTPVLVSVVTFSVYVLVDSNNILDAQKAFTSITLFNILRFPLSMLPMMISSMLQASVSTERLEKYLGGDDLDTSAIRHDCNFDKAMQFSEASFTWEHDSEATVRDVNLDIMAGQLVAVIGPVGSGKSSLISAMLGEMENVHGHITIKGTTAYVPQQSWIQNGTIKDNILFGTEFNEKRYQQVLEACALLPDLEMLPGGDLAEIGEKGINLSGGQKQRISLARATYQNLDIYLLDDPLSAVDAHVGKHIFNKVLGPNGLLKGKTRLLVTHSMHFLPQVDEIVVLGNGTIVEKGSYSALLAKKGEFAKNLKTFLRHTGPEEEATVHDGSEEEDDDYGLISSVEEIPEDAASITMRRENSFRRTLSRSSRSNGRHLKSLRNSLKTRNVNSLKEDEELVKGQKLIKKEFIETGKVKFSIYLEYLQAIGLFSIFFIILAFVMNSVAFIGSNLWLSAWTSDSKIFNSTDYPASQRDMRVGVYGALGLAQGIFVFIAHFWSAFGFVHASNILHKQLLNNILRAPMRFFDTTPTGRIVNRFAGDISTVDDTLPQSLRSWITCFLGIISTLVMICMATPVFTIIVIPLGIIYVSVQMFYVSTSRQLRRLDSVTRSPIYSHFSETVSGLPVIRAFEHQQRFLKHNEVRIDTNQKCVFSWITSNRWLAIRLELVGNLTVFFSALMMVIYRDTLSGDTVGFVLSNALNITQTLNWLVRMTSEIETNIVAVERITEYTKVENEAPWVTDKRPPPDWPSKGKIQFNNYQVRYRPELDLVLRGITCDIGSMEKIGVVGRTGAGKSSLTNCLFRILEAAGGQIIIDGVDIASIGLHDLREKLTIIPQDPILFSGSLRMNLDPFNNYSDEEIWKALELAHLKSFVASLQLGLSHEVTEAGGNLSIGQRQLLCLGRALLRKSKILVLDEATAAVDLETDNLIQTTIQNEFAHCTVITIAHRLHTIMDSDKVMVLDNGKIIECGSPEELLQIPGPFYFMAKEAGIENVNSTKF

[10] = AUC in human at 800 mg, po TID after 8 hrs; type: ADME, organism-based; parameters: dose 800 mg, time < 8 hr, route oral; settings: in vivo
[11] = Drug concentration at steady state in human at 800 mg, po TID after 8 hrs; type: ADME, organism-based; settings: in vivo, read-out: Css
[12] = Ratio of drug concentration at steady state in human at 800 mg, po TID after 8 hrs to IC50 for human BSEP overexpressed in Sf9 insect cells; type: ADME, organism-based; settings: in vivo
[13] = Ratio of drug concentration at steady state in human at 800 mg, po TID after 8 hrs to IC50 for human MRP3 overexpressed in Sf9 insect cells; type: ADME, organism-based; settings: in vivo
[14] = AUC in human at 200 mg, po QD after 24 hrs; type: ADME, organism-based; parameters: time < 24 hr, dose 200 mg, route oral; settings: in vivo
[15] = Drug concentration at steady state in human at 200 mg, po QD after 24 hrs; type: ADME, organism-based; settings: in vivo, read-out: Css
[16] = Ratio of drug concentration at steady state in human at 200 mg, po QD after 24 hrs to IC50 for human BSEP overexpressed in Sf9 insect cells; type: ADME, organism-based; settings: in vivo
[17] = Ratio of drug concentration at steady state in human at 200 mg, po QD after 24 hrs to IC50 for human MRP4 overexpressed in Sf9 insect cells; type: ADME, organism-based; settings: in vivo
[18] = AUC in human at 80 to 600 mg, po QD after 24 hrs; type: ADME, organism-based; settings: in vivo
[19] = Drug concentration at steady state in human at 80 to 600 mg, po QD after 24 hrs; type: ADME, organism-based; settings: in vivo, read-out: Css
[20] = Ratio of drug concentration at steady state in human at 80 to 600 mg, po QD after 24 hrs to IC50 for human BSEP overexpressed in Sf9 insect cells; type: ADME, organism-based; settings: in vivo
[21] = Ratio of drug concentration at steady state in human at 80 to 600 mg, po QD after 24 hrs to IC50 for human MRP4 overexpressed in Sf9 insect cells; type: ADME, organism-based; settings: in vivo
[22] = AUC in human at 75 to 100 mg, po QID after 6 hrs; type: ADME, organism-based; settings: in vivo
[23] = Drug concentration at steady state in human at 75 to 100 mg, po QID after 6 hrs; type: ADME, organism-based; settings: in vivo, read-out: Css
[24] = Ratio of drug concentration at steady state in human at 75 to 100 mg, po QID after 6 hrs to IC50 for human BSEP overexpressed in Sf9 insect cells; type: ADME, organism-based; settings: in vivo
[25] = Ratio of drug concentration at steady state in human at 75 to 100 mg, po QID after 6 hrs to IC50 for human MRP4 overexpressed in Sf9 insect cells; type: ADME, organism-based; settings: in vivo

IC50 [2]: 21.1 µM
IC50 [3]: 83.2 µM
AUC at 24 h [4]: 52.9 µM·h
concentration at 24 h [5]: 2200 nM
Ratio [7]: 0.104
Ratio [8]: 0.026
Structure (SMILES): CCCCC1=NC2(CCCC2)C(=O)N1Cc1ccc(-c2ccccc2-c2nnn[nH]2)cc1 [IRBESARTAN]
IC50 [1]: 7.31 µM
Ratio [6]: 0.301

Structure (SMILES): CC(C)(C)NC(=O)[C@@H]1CN(Cc2cccnc2)CCN1C[C@@H](O)C[C@@H](Cc1ccccc1)C(=O)N[C@H]1c2ccccc2C[C@H]1O.O
IC50 [9]: > 133 µM
IC50 [2]: 83 µM
IC50 [3]: > 133 µM
AUC at 8 h [10]: 45.1 µM·h
concentration at 8 h [11]: 5640 nM
Ratio [12]: 0.266
Ratio [13]: 0.068

Structure (SMILES): CC(=O)N1CCN(c2ccc(OCC3COC(Cn4ccnc4)(c4ccc(Cl)cc4Cl)O3)cc2)CC1 (stereo not drawn) [KETOCONAZOLE]
IC50 [9]: > 133 µM
IC50 [2]: > 133 µM
IC50 [3]: 69 µM
AUC at 24 h [14]: 31.1 µM·h
concentration at 24 h [15]: 1300 nM
Ratio [16]: 0.381
Ratio [17]: 0.019

IC50 [9]: > 133 µM
IC50 [2]: > 133 µM
IC50 [3]: 1 µM
AUC at 24 h [18]: 284 µM·h
concentration at 24 h [19]: 11800 nM
Ratio [21]: 11.849
Structure (SMILES): COc1ccc(/C=C/C(=O)Nc2ccccc2C(=O)O)cc1OC
IC50 [1]: 41.5 µM
Ratio [20]: 0.286

IC50 [9]: > 133 µM
IC50 [2]: > 133 µM
IC50 [3]: 8.3 µM
AUC at 6 h [22]: 6.82 µM·h
concentration at 6 h [23]: 1140 nM
Ratio [25]: 0.137
Structure (SMILES): OCCN(CCO)c1nc(N2CCCCC2)c2nc(N(CCO)CCO)nc(N3CCCCC3)c2n1 [DIPYRIDAMOLE]
IC50 [1]: 4 µM
Ratio [24]: 0.303
